These results are taken from US11208412B2 (DAEGU-GYEONGBUK MEDICAL INNOVATION FOUNDATION, priority 2017, dated 2021).

What all share (experiment): Kinase selectivity, DiscoverX scanMAX Kinase assay panel (% control)
Common to all, as to type: binding

Assay [1] concerns the target T1, kinases of the scanMAX Kinase assay panel (Homo sapiens, UniProt O14965).
T1 construct: purchased DiscoverX Co. (contract measurement) scanMAX Kinase assay panel
T1 sequence (O14965 1-403): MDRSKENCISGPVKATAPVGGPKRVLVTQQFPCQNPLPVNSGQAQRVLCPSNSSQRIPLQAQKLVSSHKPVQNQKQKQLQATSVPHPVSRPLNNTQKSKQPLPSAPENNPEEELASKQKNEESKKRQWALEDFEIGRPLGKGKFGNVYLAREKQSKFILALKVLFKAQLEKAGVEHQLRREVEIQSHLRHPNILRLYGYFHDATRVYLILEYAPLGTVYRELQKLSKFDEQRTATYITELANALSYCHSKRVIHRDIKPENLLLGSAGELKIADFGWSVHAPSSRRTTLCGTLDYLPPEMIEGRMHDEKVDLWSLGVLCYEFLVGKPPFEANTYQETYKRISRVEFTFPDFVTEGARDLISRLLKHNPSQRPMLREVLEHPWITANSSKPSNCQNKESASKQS
Conditions: AURKA; 1 uM. The method in brief: (§1)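 Each enzyme is treated with drug at 1 uM in DMSO, then signal is scaled between a positive control (0%) and DMSO (100%) to give % control. Kinases with % control under 35% are scored as inhibited.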

For assay [2], the target named is T2, kinases of the scanMAX Kinase assay panel (Homo sapiens, UniProt Q92918).
T2 construct: purchased DiscoverX Co. (contract measurement) scanMAX Kinase assay panel
The settings on record: HPK1; 1 uM. The method in brief: as §1

Assay [3] deals with T3, kinases of the scanMAX Kinase assay panel (Homo sapiens, UniProt P24941).
T3 construct: purchased DiscoverX Co. (contract measurement) scanMAX Kinase assay panel
The settings on record: CDK2; 1 uM. A digest of the protocol:
as §1

Assay [4] deals with T4, kinases of the scanMAX Kinase assay panel (Homo sapiens, UniProt Q13976).
T4 construct: purchased DiscoverX Co. (contract measurement) scanMAX Kinase assay panel
T4 sequence (Q13976 1-671): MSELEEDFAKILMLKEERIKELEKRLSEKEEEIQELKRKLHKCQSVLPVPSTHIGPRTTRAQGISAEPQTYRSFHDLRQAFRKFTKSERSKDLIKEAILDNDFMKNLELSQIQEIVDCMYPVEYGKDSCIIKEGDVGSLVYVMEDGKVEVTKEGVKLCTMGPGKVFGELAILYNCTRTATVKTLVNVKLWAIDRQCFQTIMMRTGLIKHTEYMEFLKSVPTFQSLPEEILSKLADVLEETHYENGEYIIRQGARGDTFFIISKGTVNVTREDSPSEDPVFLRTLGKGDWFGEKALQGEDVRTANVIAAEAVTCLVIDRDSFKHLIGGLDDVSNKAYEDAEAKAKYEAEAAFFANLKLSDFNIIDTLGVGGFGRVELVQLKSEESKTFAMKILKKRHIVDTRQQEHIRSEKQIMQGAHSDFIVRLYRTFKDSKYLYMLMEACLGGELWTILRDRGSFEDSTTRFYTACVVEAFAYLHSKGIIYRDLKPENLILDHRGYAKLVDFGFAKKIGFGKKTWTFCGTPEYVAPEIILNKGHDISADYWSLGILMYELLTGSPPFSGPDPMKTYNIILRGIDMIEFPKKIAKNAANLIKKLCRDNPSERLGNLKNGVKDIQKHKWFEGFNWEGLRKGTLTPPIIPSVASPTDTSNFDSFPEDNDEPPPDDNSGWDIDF
The settings on record: PRKG1; 1 uM. The method in brief:
as §1

For assay [5], the target named is T5, kinases of the scanMAX Kinase assay panel (Homo sapiens, UniProt P10721, V559D).
T5 construct: purchased DiscoverX Co. (contract measurement) scanMAX Kinase assay panel
The settings on record: KIT(V559D); 1 uM. The method in brief: as §1

The target of assay [6] is T6, kinases of the scanMAX Kinase assay panel (Homo sapiens, UniProt P52333).
T6 construct: purchased DiscoverX Co. (contract measurement) scanMAX Kinase assay panel
T6 sequence (P52333 1-1124): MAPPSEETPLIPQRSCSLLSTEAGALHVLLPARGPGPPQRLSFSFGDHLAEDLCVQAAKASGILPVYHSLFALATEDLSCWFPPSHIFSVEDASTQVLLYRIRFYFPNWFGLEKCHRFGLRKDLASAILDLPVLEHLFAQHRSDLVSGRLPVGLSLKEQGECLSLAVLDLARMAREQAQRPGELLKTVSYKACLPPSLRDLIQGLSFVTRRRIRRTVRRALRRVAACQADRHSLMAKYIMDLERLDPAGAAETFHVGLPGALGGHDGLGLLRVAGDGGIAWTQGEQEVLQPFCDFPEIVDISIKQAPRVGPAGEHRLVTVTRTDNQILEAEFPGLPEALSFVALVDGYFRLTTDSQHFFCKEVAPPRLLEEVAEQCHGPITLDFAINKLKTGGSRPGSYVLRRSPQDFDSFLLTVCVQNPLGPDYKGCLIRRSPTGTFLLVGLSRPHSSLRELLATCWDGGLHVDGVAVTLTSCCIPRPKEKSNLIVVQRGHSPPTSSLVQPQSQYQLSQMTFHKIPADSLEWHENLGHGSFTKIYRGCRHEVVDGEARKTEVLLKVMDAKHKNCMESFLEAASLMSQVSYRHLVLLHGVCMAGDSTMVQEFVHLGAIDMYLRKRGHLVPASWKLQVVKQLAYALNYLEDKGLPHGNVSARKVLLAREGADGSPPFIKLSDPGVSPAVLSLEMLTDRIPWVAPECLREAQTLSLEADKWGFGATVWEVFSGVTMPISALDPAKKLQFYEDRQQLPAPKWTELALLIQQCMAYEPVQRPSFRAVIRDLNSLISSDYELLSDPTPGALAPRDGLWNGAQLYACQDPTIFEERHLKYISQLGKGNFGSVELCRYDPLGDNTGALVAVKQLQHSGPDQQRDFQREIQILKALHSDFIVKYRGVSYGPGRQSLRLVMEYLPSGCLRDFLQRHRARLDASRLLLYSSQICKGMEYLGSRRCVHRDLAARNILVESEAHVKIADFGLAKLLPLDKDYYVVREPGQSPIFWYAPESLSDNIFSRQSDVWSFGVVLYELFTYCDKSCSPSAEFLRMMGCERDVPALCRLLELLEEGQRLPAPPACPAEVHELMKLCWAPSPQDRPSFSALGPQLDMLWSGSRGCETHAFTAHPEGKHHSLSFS
Conditions: JAK3(JH1domain-catalytic); 1 uM. The method in brief: as §1

The target in assay [7] is T7, kinases of the scanMAX Kinase assay panel (Homo sapiens, UniProt P80192).
T7 construct: purchased DiscoverX Co. (contract measurement) scanMAX Kinase assay panel
Conditions: MLK1; 1 uM. A digest of the protocol:
as §1

Structures are written as SMILES.

T2 sequence (Q92918 whole entry): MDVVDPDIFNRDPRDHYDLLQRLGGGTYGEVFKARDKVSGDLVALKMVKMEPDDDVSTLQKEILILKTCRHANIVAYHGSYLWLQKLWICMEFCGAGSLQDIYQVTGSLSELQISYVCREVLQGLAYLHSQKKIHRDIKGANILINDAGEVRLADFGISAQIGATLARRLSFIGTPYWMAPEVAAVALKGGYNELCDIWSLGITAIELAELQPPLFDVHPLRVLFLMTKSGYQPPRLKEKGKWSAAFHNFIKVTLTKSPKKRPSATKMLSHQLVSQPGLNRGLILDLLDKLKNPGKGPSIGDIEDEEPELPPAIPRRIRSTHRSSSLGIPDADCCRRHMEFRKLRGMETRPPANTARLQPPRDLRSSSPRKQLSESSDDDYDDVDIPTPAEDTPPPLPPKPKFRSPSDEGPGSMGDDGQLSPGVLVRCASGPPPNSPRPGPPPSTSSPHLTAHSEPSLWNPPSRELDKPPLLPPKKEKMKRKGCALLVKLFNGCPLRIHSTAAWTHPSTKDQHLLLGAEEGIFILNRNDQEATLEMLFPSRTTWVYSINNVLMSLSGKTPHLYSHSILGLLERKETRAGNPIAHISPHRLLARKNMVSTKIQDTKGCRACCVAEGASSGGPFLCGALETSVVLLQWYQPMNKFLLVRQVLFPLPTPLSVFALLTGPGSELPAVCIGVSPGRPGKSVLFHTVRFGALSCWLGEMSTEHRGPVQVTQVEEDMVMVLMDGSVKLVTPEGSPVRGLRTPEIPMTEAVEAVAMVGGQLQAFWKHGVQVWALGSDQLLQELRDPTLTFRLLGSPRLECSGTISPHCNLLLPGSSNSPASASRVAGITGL
T5 sequence (P10721 26-976 V559D): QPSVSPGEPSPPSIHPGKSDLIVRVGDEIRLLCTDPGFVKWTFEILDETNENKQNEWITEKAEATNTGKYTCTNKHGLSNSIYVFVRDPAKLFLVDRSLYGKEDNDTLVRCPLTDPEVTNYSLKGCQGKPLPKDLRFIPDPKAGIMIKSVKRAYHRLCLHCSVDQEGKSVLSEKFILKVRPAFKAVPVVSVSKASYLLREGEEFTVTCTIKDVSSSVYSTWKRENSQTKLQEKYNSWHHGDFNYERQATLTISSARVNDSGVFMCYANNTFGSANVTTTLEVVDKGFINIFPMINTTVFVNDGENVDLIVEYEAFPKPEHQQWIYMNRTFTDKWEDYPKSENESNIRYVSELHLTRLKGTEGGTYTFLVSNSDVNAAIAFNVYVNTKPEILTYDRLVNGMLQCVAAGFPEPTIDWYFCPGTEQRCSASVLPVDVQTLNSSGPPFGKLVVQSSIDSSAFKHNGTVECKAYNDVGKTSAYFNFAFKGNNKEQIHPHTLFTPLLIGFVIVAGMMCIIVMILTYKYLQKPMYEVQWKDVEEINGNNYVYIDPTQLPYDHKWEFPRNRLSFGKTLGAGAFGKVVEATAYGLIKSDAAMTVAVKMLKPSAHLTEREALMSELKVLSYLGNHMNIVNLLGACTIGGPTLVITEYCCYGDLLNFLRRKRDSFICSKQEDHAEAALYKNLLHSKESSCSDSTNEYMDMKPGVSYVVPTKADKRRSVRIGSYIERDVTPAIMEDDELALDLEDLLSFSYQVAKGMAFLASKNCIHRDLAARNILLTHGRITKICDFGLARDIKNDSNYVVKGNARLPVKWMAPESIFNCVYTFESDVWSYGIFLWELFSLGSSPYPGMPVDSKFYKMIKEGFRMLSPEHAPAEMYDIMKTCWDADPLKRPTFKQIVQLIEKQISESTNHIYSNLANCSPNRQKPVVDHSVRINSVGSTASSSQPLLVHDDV
T7 sequence (P80192 whole entry): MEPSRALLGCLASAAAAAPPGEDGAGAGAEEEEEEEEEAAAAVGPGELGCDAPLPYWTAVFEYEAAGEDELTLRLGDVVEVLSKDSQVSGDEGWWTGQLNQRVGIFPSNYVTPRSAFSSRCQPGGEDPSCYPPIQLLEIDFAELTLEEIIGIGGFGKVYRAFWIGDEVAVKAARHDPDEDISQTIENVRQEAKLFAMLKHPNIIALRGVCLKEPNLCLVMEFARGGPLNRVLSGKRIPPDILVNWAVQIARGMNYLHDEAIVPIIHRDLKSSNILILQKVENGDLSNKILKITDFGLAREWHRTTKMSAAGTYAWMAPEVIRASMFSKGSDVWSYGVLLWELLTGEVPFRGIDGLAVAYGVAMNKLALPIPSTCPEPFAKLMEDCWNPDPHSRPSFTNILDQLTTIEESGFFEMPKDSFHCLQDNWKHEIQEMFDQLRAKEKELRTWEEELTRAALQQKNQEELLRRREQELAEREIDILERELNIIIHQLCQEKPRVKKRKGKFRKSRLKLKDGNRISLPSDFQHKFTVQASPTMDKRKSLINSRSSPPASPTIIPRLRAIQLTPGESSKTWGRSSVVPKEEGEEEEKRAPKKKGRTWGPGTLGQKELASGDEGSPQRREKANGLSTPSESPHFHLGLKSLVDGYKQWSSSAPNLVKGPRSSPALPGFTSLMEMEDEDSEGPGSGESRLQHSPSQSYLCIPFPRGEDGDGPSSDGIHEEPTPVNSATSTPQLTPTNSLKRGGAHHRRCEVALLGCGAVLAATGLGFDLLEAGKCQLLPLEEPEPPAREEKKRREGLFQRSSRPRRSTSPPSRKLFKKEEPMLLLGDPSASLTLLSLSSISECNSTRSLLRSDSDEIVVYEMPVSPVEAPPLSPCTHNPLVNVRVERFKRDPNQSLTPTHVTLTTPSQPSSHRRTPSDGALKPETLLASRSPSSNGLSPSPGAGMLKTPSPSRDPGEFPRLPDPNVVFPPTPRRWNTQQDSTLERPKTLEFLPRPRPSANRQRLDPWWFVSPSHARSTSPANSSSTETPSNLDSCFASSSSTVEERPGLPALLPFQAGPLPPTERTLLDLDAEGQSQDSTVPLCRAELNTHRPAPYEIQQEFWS

Turning to `CNc1nc(Nc2ccc(C(=O)N3CCOCC3)cc2OC)nc2[nH]cc(C#N)c12` [Example 1, 2-((2-methoxy-4-(morpholine-4-carbonyl)phenyl)amino)-4-(methylamino)-7H-pyrrolo[2,3-d]pyrimidine-5-carbonitrile], the remaining binding at 1 µM came out at 99% in assay [1]; 79% in assay [2]; 94% in assay [3]; 83% in assay [4]; 38% in assay [5]; 64% in assay [6]. The same molecule had a remaining binding at 1 µM in assay [7] of 81%.

As for `CC1(Nc2nc(Nc3cnn([C@H]4CCN(C5COC5)C[C@@H]4F)c3Cl)nc3[nH]cc(C#N)c23)CC1` [Example 52, 2-((5-chloro-1-((3S,4S)-3-fluoro-1-(oxetane-3-yl)piperidine-4-yl)-1H-pyrazole-4-yl)amino)((1-methylcyclopropyl)amino)-7H-pyrrolo[2,3-d]pyrimidine-5-carbonitrile], the remaining binding at 1 µM in assay [1] was 0.85%; in assay [2], 4.3%; in assay [3] it was 96%; in assay [4], 79%; in assay [5] it was 0%; in assay [6], 0%. Moreover, in assay [7], the remaining binding at 1 µM was 0.5%.

`CCNc1nc(Nc2ccc(C(=O)N3CCC(N4CCOCC4)CC3)cc2OC)nc2[nH]cc(C(F)(F)F)c12` [Example 104, (4-((4-(ethylamino)-5-(trifluoromethyl)-7H-pyrrolo[2,3-d]pyrimidine-2-yl)amino)-3-methoxyphenyl)(4-morpholinopiperidine-1-yl)methanone]: the remaining binding at 1 µM in assay [1] was 87%; in assay [2] it was 100%; in assay [3], 98%; in assay [4] it was 84%; in assay [5] it was 46%; in assay [6] it was 100%. The same molecule came in with a remaining binding at 1 µM in assay [7] of 66%.
